Results: EP0631503B1, “USE OF VASOACTIVE INTESTINAL PEPTIDE (VIP) TO INDUCE TEMPORARY PARALYSIS OF THE GASTROINTESTINAL TRACT” (KORMAN, Louis Y., priority 1991, dated 2001)
Like-named read-outs stand apart in the source and are kept apart here.

Assays:
[1] = Protocol: During the period of observation, vital signs (blood pressure and pulse) and symptoms were continuously recorded. The protocol was such that if the blood pressure dropped by more than 20 mm Hg systolic or diastolic or the pulse increased by more than 30 beats per minute for 2 minutes, intravenous saline was to be administered and the study terminated.
[2] = dose dependent side effects; cited from earlier work
gastroduodenal motility = conditions: reduction in gastroduodenal motility, dose-dependent; cited from earlier work
opossum duodenum = conditions: cited from earlier work
antroduodenal activity = conditions: 1 mg i.v. followed by 2 mg IV over 2 hours; cited from earlier work
[3] = test system: contractions in the antrum; conditions: doses as high as 2 mg; cited from earlier work
[4] = in vivo; cited from earlier work
[5] = first patient, initial dose of 5 ng VIP per kg

Compound	effects on blood pressure and pulse ([1]; first patient, higher dose level (20 ng/kg))	pulse [1, 5]	systolic pressure [1, 5]	blood pressure ([1]; second patient, 5 and 20 ng/kg of bodyweight)	blood pressure or pulse ([1]; second patient, any of the dosages tested)	blood pressure or pulse ([1]; third patient, any dose of VIP administered)	adverse reactions such as nausea or vomiting ([1]; three patients studied)	dose at which nausea and vomiting can appear [2] [mg]	minimally effective dose (gastroduodenal motility) [mg]	effect on duodenum (opossum duodenum)	cycle length and time between contractile activity in the duodenum (antroduodenal activity)	mean pressure period (antroduodenal activity)	contractions in the antrum [3]	colonoscopic evaluation [4]
CC[C@H](C)[C@H](NC(=O)[C@H](CO)NC(=O)[C@H](CC(N)=O)NC(=O)[C@H](CC(C)C)NC(=O)[C@H](Cc1ccc(O)cc1)NC(=O)[C@H](CCCCN)NC(=O)[C@H](CCCCN)NC(=O)[C@@H](NC(=O)[C@H](C)NC(=O)[C@H](CCSC)NC(=O)[C@H](CCC(N)=O)NC(=O)[C@H](CCCCN)NC(=O)[C@H](CCCN=C(N)N)NC(=O)[C@H](CC(C)C)NC(=O)[C@H](CCCN=C(N)N)NC(=O)[C@@H](NC(=O)[C@H](Cc1ccc(O)cc1)NC(=O)[C@H](CC(N)=O)NC(=O)[C@H](CC(=O)O)NC(=O)[C@@H](NC(=O)[C@H](Cc1ccccc1)NC(=O)[C@@H](NC(=O)[C@H](C)NC(=O)[C@H](CC(=O)O)NC(=O)[C@H](CO)NC(=O)[C@@H](N)Cc1c[nH]cn1)C(C)C)[C@@H](C)O)[C@@H](C)O)C(C)C)C(=O)N[C@@H](CC(C)C)C(=O)N[C@@H](CC(N)=O)C(N)=O [VIP, vasoactive intestinal peptide]	not seen	increase	slight decrease	no significant effect	no significant change	no significant change	None of the three patients studied experienced any adverse reactions							
glucagon								1	0.5	stimulated relaxation	significantly increased	decreased	does not reduce contractions	does not facilitate
